Data as given in the NIST ThermoML archive (doi:10.1021/je060271a).

Settings: 303.14 K, Liquid, Vibrating tube method

CCCCCCC(=O)OCC(COC(=O)CCCCCC)(COC(=O)CCCCCC)COC(=O)CCCCCC [pentaerythritol tetraheptanoate]
Settings	mass density [kg/m3]
3038.7 kPa	972.7
3058.7 kPa	972.6
3082.4 kPa	972.7
3102.9 kPa	972.7
3122.8 kPa	972.6
3144 kPa	972.7
3168.8 kPa	972.6
3190.1 kPa	972.7
3211.6 kPa	972.8
3237.6 kPa	972.8
3258.9 kPa	972.7
3281.4 kPa	972.8
3307.8 kPa	972.7
3330.1 kPa	972.8
3352.7 kPa	972.9
3380 kPa	972.9
3403.4 kPa	972.9
3426.8 kPa	973
3450.4 kPa	972.9
3479.2 kPa	972.9
3502.9 kPa	972.9
3527.3 kPa	972.9
3557 kPa	973
3581.9 kPa	973.1
3607.2 kPa	972.9
3632.9 kPa	973
3663.7 kPa	973
3689.2 kPa	973.1
3719.9 kPa	973.1
3746.2 kPa	973
3772.9 kPa	973.1
3800.2 kPa	973.1
3832.6 kPa	973.2
3860.2 kPa	973.1
3888.8 kPa	973.1
3922.9 kPa	973.2
3951.5 kPa	973.3
3980.6 kPa	973.3
4009.8 kPa	973.2
4044.8 kPa	973.2
4074.3 kPa	973.3
4103.9 kPa	973.4
4139.9 kPa	973.4
4170.1 kPa	973.4
4200.4 kPa	973.3
4233.1 kPa	973.3
4239.8 kPa	973.3
4241.6 kPa	973.4
4243.3 kPa	973.4
4244.7 kPa	973.5
4245.2 kPa	973.4
4245.9 kPa	973.5
4246.6 kPa	973.4
4246.8 kPa	973.5
4247.1 kPa	973.4
4247.3 kPa	973.4
4247.5 kPa	973.5
4249.4 kPa	973.4
4257.2 kPa	973.5
4271.5 kPa	973.3
4283.5 kPa	973.5
4296.1 kPa	973.4
4311.4 kPa	973.5
4322.4 kPa	973.6
4342.7 kPa	973.4
4361.4 kPa	973.4
4372.3 kPa	973.5
4382.1 kPa	973.5
4393.9 kPa	973.6
4403.8 kPa	973.4
4413.6 kPa	973.4
4425.4 kPa	973.5
4435.5 kPa	973.5
4445.2 kPa	973.5
4455.2 kPa	973.5
4467.5 kPa	973.6
4476.8 kPa	973.6
4487.4 kPa	973.6
4499.3 kPa	973.5
4509.6 kPa	973.5
4519.6 kPa	973.6
4529.8 kPa	973.5
4541.2 kPa	973.6
4551.3 kPa	973.5
4563.6 kPa	973.6
4573.1 kPa	973.6
4582.4 kPa	973.6
4592.3 kPa	973.7
4605.6 kPa	973.6
4631.8 kPa	973.7
4653.8 kPa	973.6
4676.1 kPa	973.5
4703.4 kPa	973.7
4724.4 kPa	973.8
4743.1 kPa	973.7
4764.9 kPa	973.7
4783.4 kPa	973.6
4801.9 kPa	973.8
4820.6 kPa	973.8
4843.5 kPa	973.7
4862.8 kPa	973.7
4882.7 kPa	973.8
4901.8 kPa	973.6
4925 kPa	973.8
4944 kPa	973.8
4964.4 kPa	973.9
4984.3 kPa	974
5008.5 kPa	973.8
5029 kPa	973.9
5050.1 kPa	974
5075 kPa	973.9
